Measured values as given in ChEMBL document CHEMBL5500388, “Design, synthesis and biological evaluation of 4-(indolin-1-yl)-6-substituted-pyrido[3,2-d]pyrimidine derivatives as Mnk1/2 inhibitors” (Eur J Med Chem, 2024).

Columns and labels:
[1] = system: MOLM-13; test: Induction of cell cycle arrest at G0/G1 stage in human MOLM-13 cells at 2 uM treated for 24 hrs by PI/RNase staining based flow cytometry (reference value: 53.98 %); format: functional
[2] = system: MOLM-13; test: Induction of cell cycle arrest at G0/G1 stage in human MOLM-13 cells at 4 uM treated for 24 hrs by PI/RNase staining based flow cytometry (reference value: 53.98 %); format: functional
[3] = system: MOLM-13; test: Induction of cell cycle arrest at G0/G1 stage in human MOLM-13 cells at 8 uM treated for 24 hrs by PI/RNase staining based flow cytometry (reference value: 53.98 %); format: functional
[4] = system: K562; test: Induction of cell cycle arrest at G0/G1 stage in human K562 cells at 4 uM treated for 24 hrs by PI/RNase staining based flow cytometry (reference value: 38.8 %); format: functional
[5] = system: K562; test: Induction of cell cycle arrest at G0/G1 stage in human K562 cells at 8 uM treated for 24 hrs by PI/RNase staining based flow cytometry (reference value: 38.8 %); format: functional
[6] = system: K562; test: Induction of cell cycle arrest at G0/G1 stage in human K562 cells at 16 uM treated for 24 hrs by PI/RNase staining based flow cytometry (reference value: 38.8 %); format: functional
[7] = system: HCT-116; test: cells; details: Homo sapiens, HCT-116, 96 h
[8] = system: MOLM-13; test: cells; details: Homo sapiens, MOLM-13, 72 h
[9] = system: K562; test: cells; details: Homo sapiens, K562, 72 h
[10] = system: HL-60; test: cells; details: Homo sapiens, HL-60, 72 h

GI50 [7]: 10.2 µM
GI50 [8]: 10.7 µM
GI50 [9]: 26.6 µM
GI50 [10]: 8.42 µM
Compound: Nc1ncnc2[nH]nc(Nc3ccc(F)cc3)c12
Activity [1]: 55.79%
Activity [2]: 59.95%
Activity [3]: 66.39%
Activity [4]: 48.93%
Activity [5]: 52.06%
Activity [6]: 58.15%
